# Results as given in ChEMBL document CHEMBL1150255, “Spongian diterpenes with thyrotropin releasing hormone receptor 2 binding affinity from Spongia sp” (J Nat Prod, 2008).
# Target: T1, Thyrotropin-releasing hormone receptor 2 (Rattus norvegicus, UniProt A6IZR3)
# T1 sequence (A6IZR3 whole entry): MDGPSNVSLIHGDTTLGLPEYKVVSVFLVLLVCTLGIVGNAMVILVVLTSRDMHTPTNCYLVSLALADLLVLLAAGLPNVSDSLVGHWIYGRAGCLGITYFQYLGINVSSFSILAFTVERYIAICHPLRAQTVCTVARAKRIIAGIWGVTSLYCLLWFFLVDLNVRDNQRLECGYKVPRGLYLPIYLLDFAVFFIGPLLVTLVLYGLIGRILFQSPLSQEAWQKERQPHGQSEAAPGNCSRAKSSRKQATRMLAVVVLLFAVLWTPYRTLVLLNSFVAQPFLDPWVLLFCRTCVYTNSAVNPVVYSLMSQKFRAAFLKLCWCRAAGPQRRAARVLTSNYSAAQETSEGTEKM
# Assay: Displacement of [3H]3-methylhistidyl-TRH from rat recombinant TRHR2 expressed in […] cells
# Type: cell-based
row,SMILES,IC50 [µM]
1,CC(=O)OC[C@@]1(C)CCC[C@]2(COC(C)=O)[C@H]3CCc4cocc4[C@]3(C)CC[C@@H]12,400
2,CC(=O)OC[C@@]1(C)CCC[C@]2(CO)[C@H]3CCc4cocc4[C@]3(C)CC[C@@H]12,70
3,CC1(C)CCC[C@]2(C)[C@H]3CCc4cocc4[C@]3(C)CC[C@@H]12,1000
4,C[C@]1(CO)CCC[C@]2(CO)[C@H]3CCc4cocc4[C@]3(C)CC[C@@H]12,600
5,NC(=O)[C@@H]1CCCN1C(=O)[C@H](Cc1cnc[nH]1)NC(=O)[C@@H]1CCC(=O)N1 [PROTIRELIN],0.023
6,CC(=O)OC[C@]12CCC[C@](C)(CO)[C@@H]1CC[C@@]1(C)c3cocc3CC[C@H]21,23
